Where “and” joins values, the source holds several entries; their conditions need not be identical. Equal values may be shown once.
Test system: SK(-)GAS Streptococcus pyogenes + kanamycin, BacTiterGlo viability, 6 h
Assay: growth inhibition of control SK(-) GAS strain, dose response, counter-screen for streptokinase expression inhibitor project, luminescence, kanamycin, BacTiterGlo, confirmation (AID 1900)

| Structure (SMILES) | EC50 |
| --- | --- |
| CN(C)c1ccnc2c[cH-]cc12.[Fe].c1ccc(-[c-]2[c-](-c3ccccc3)[c-](-c3ccccc3)[c-](-c3ccccc3)[c-]2-c2ccccc2)cc1 (configuration not stated) | 0.989 µM and 0.334 µM |
| CNC(CC(C)C)C(=O)NC1C(=O)NC(CC(N)=O)C(=O)NC2C(=O)NC3C(=O)NC(C(=O)NC(C(=O)O)c4cc(O)cc(O)c4-c4cc3ccc4O)C(O)c3ccc(c(Cl)c3)Oc3cc2cc(c3OC2OC(CO)C(O)C(O)C2OC2CC(C)(N)C(O)C(C)O2)Oc2ccc(cc2Cl)C1O (configuration not stated) | 0.211 µM |

— PubChem BioAssay AID1900 (Broad Institute, 2009)
